pIC50: −log10 of the molar value. Where two headings read alike, the source gives them in different places.
Legend:
mTOR = mTOR (Homo sapiens, UniProt P42345); assay: mTOR enzymology assay (in vitro enzyme inhibition, ULight-4E-BP1 peptide, Lance signal); type: biochemical; conditions: mTOR 2.5 nM, ULight-4E-BP1 peptide 50 nM, ATP 10.8 uM, 60 mins
Procedure: mTOR Enzymology Assay Procedures
1. The agent's final concentrations and the compound solution preparation
1.1 mTOR (2.5 nM) kinase solution, substrate ULight-4E-BP1 peptide 50 nM, ATP 10.8 uM;
(§1) 1.2 4 folds kinase solution, 2 folds substrate and ATP solution;
(§2) 1.3 test compound 1 mM stock solution (final concentration 100 folds of DMSO solution).
(§3) 2.1 test compound 1 mM, diluted with DMSO 4 folds gradient, and then diluted with kinase buffer 25 folds;
(§4) 2.2 To each well in a 384-well plate was added 2.5 μL series diluted compounds;
2.3 To each well was added 2.5 μL 4 fold kinase solution;
(§5) 2.4 To each well was added 2.5 μL substrate/ATP solution;
(§6) 2.5 incubated for 60 mins;
2.6 Envision data reading Lance signal (665 nM).
The inhibition ratio %=(Lance signal−min)/(max−min)×100
wherein “max” is the DMSO control containing the enzyme but not containing the compound; “min” is the control without the kinase.
Input the data into GraphPad Prism5.0 to plot a curve and obtain IC50.

[1] = Pharmacokinetic assay in rat in vivo; conditions: Sprague-Dawley (SD), plasma, male SD rats; for half-life: read-out: T1/2 (half-life) (converted); for bioavailability: PO(4 mg/kg) vs IV, read-out: F(%) absolute bioavailability
Procedure: Male SD rats, each test substance, each administration, three rats were used, having a body weight of 200-250 g.
the present compounds: Compound 16, dissolved with 5% NMP+60% PEG400+35% sterile water for injection, other compounds, dissolved with 5% NMP+40% PEG400+55% sterile water for injection.
Blood collection: each of about 100 μL whole blood were collected at 0 h before administration (pre-administration), and at 0.083 h, 0.25 h, 0.5 h, 1 h, 2 h, 4 h, 6 h, 8 h and 24 h after administration. The collected blood samples were centrifuged at 8000 rpm in a high-speed centrifuge for 6 mins to separate the blood plasm. The separated plasm was freezing-preserved at −80° C. in a refrigerator.
Plasm sample analysis: The plasm sample was treated by a liquid-liquid extraction. 20 μL of the plasm was taken, subjected to a vortex at 1500 rpm for 10 mins, and then centrifuged at 12000 rpm for 5 mins. 400 μL of the supernatant was taken and blowed to dryness in the nitrogen gas. The resulting substance is re-dissolved in 200 μL methanol:water (1:1, V/V), and the solution was analyzed with LC-MS/MS.

PI3Kα = PI3Kα (Homo sapiens, UniProt P42336); assay: PI3Kα enzymology assay (in vitro enzyme inhibition); type: biochemical; conditions: PI3Kα 1.65 nM, PIP2 50 μM, ATP 25 μM, 60 mins
Chain of PI3Kα (P42336 whole entry): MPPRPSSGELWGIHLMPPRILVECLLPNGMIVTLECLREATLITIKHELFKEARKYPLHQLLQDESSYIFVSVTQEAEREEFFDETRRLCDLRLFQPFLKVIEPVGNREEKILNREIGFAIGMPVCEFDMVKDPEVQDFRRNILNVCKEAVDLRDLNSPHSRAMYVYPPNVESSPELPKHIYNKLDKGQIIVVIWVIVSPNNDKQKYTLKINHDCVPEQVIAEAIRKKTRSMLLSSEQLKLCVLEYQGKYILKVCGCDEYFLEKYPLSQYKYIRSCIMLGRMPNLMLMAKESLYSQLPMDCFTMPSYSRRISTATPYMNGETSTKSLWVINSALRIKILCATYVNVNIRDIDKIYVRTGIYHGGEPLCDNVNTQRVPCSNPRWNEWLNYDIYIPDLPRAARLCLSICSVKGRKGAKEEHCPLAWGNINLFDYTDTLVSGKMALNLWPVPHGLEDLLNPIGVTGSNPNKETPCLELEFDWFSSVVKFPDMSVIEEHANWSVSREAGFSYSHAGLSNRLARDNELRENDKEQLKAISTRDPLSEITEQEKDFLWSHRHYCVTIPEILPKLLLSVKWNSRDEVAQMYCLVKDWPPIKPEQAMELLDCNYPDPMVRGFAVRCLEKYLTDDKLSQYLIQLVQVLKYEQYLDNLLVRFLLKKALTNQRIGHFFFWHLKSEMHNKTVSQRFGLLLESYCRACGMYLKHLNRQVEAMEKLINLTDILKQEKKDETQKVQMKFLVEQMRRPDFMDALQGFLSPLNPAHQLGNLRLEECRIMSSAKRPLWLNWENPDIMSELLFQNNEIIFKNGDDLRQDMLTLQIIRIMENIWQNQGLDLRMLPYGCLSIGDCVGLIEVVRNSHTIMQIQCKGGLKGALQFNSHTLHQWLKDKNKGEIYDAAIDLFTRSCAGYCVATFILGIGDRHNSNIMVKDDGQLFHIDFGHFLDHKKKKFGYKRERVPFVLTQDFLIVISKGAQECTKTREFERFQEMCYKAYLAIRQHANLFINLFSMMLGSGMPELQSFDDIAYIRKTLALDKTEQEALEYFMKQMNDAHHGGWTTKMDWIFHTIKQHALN
Chain of PI3Kα (P27986 whole entry partner): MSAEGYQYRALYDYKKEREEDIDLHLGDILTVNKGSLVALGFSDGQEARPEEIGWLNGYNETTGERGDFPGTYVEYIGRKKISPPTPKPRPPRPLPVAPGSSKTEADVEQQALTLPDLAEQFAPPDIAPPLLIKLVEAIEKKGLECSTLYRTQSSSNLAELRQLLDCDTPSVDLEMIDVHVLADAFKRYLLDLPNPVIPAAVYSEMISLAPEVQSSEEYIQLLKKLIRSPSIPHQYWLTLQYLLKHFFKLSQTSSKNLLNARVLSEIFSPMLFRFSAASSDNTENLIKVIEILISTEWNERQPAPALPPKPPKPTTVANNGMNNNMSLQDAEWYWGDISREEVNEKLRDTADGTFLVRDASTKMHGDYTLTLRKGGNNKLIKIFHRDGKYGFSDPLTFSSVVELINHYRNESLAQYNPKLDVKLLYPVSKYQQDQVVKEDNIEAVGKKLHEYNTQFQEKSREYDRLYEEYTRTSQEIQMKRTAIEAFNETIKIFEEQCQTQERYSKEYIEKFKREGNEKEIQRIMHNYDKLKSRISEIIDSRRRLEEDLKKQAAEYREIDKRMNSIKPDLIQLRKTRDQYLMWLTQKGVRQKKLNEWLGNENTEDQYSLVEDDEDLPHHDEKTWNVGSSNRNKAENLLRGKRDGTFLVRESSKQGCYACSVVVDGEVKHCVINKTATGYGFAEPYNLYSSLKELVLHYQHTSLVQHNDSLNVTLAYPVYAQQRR
Procedure: PI3Kα Enzymology Assay Procedures
1. The agent's final concentrations and the compound formulation
1.1 PI3Kα (1.65 nM) kinase solution, substrate PIP2 50 μM, ATP 25 μM;
as §1, §2, §3, §4
2.3 To each well was added 2.5 μL 4 folds kinase solution;
as §5, §6
2.6 Envision data reading: Lance signal ([…]).
The inhibition ratio %=(sample RLU−min)/(max−min)×100
wherein “max” is the control without the kinase; “min” is the DMSO control containing the enzyme but not containing the compound.
Data were input into GraphPad Prism 5.0 to plot a curve and obtain IC50.

A549 cells = assay: In vitro cellular inhibitory activity, XTT cell viability, A549; type: cell-based; conditions: Homo sapiens, 72 hours
Procedure: (§7) 1. Formulating the agents and the compounds: Formulating the PBS, the XTT working liquor, the paclitaxel stock solution and gradient dilute solutions thereof, and the stock solution of test compound and gradient dilute solutions of test compounds.
(§8) 2. Culturing cells: Thawing cells, Passing cells, Freezing and preserving cells.
(§9) Preparing the cell suspension;
(§10) The cell suspension was added to a 96-well plate, 100 μL per well;
(§11) The plate was placed in the incubator and incubated at 37° C. under 5% CO2 overnight.
(§12) Drugs were added to the cell culture plate. The plate was placed in the CO2 incubator and incubated for 72 hours.
(§13) 5. Testing the cell viability with the XTT method
(§14) The XTT working solution was added to the plate. The plate was placed in the CO2 incubator for 2 hours. Then the plate was placed in a microplate reader to read the absorbance at 450 nm.
(§15) 1) % inhibition=(Absorbance (Vehicle)−Absorbance(Compound))/(Absorbance(Vehicle)−Absorbance(positive control)×100%;
(§16) 2) Data were input into GraphPad Prism 5.0 to plot a curve and obtain IC50.

U87MG cells = assay: In vitro cellular inhibitory activity, XTT cell viability, U87MG; type: cell-based; conditions: Homo sapiens, U-87 MG, 72 hours
Procedure: as §7, §8, §9, §10, §11, §12, §13, §14, §15, §16

[2] = IV(2 mg/kg), dosage in Table 3 (Compound 16: 0.45 mg/kg)

Row | Compound | pIC50 (mTOR) | AUC(0-t) [1, 2] | half-life [1, 2] | bioavailability [1] | AUC(0-t) ([1]; PO(4 mg/kg), intragastric) | half-life ([1]; PO(4 mg/kg), intragastric) | pIC50 (PI3Kα) | pIC50 (A549 cells) | pIC50 (U87MG cells)
1 | O=c1ccc2cnc3ccc(-c4c[nH]c5ncccc45)nc3c2n1-c1cccc(C(F)(F)F)c1 [Compound 17, 2-(1H-pyrrolo[2,3-b]pyridin-3-yl)-10-(3-(trifluoromethyl)phenyl)pyrido[3,2-c][1,5]naphthyridin-9(10H)-one] | 8.28 | 723 ng·h/mL | 0.61 h | 20.8% | 212 ng·h/mL | 5.68 h | 7.35 |  | 
2 | N#Cc1ccc(-c2ccc3ncc4ccc(=O)n(-c5cccc(C(F)(F)F)c5)c4c3n2)cn1 [Compound 16, 5-(9-oxo-10-(3-(trifluoromethyl)phenyl)-9,10-dihydropyrido[3,2-c][1,5]naphthyridin-2-yl)-2-cyanopyridine] | 8.06 | 195 ng·h/mL | 1.52 h | 23% | 410 ng·h/mL | 1.67 h | 7.24 |  | 
3 | Nc1ncc(-c2ccc3ncc4ccc(=O)n(-c5cccc(C(F)(F)F)c5)c4c3n2)cn1 [Compound 13, 2-(2-aminopyrimidin-5-yl)-10-(3-(trifluoromethyl)phenyl)pyrido[3,2-c][1,5]naphthyridin-9(10H)-one] | 9.33 | 711 ng·h/mL | 0.62 h | 49% | 707 ng·h/mL | 1.44 h | 8.62 |  | 7.58
4 | CC(C)(C#N)c1ccc(-n2c(=O)ccc3cnc4ccc(-c5ccc(N)nc5)nc4c32)cc1 [Compound 7, 2-(4-(2-(6-aminopyridin-3-yl)-9-oxopyrido[3,2-c][1,5]naphthyridin-10(9H)-yl)phenyl)-2-methylpropanenitrile] |  |  |  |  |  |  |  |  | 7.53
5 | CC(=O)Nc1ccc(-c2ccc3ncc4ccc(=O)n(-c5cccc(C(F)(F)F)c5)c4c3n2)cn1 [Compound 15, N-(5-(9-oxo-10-(3-(trifluoromethyl)phenyl)-9,10-dihydropyrido[3,2-c][1,5]naphthyridin-2-yl)pyridin-2-yl)acetamide] | 8.52 | 441 ng·h/mL | 0.71 h | 65% | 550 ng·h/mL | 2.36 h | 8.21 | 7.69 | 7.90
6 | O=c1ccc2cnc3ccc(-c4ccc(CO)nc4)nc3c2n1-c1cccc(C(F)(F)F)c1 [Compound 18, 2-(6-(hydroxymethyl)pyridin-3-yl)-10-(3-(trifluoromethyl)phenyl)pyrido[3,2-c][1,5]naphthyridin-9(10H)-one] | 8.59 |  |  |  |  |  | 8.44 |  | 
7 | Nc1ccc(-c2ccc3ncc4ccc(=O)n(-c5cccc(C(F)(F)F)c5)c4c3n2)cn1 [Compound 1, 2-(6-aminopyridin-3-yl)-10-(3-(trifluoromethyl)phenyl)pyrido[3,2-c][1,5]naphthyridin-9(10H)-one] | 9.06 | 1310 ng·h/mL | 1.79 h | 43.7% | 1030 ng·h/mL | 2.78 h | 8.49 | 7.92 | 8.05
8 | COc1ncc(-c2ccc3ncc4ccc(=O)n(-c5cccc(C(F)(F)F)c5)c4c3n2)cn1 [Compound 14, 2-(2-methoxypyrimidin-5-yl)-10-(3-(trifluoromethyl)phenyl)pyrido[3,2-c][1,5]naphthyridin-9(10H)-one] | 8.36 |  |  | 42.3% | 445 ng·h/mL | 3.49 h | 8.06 |  | 

Other lines, results leading:

Row | pIC50 (mTOR) | AUC(0-t) [1, 2] | half-life [1, 2] | bioavailability [1] | AUC(0-t) ([1]; PO(4 mg/kg), intragastric) | half-life ([1]; PO(4 mg/kg), intragastric) | pIC50 (PI3Kα) | pIC50 (A549 cells) | pIC50 (U87MG cells) | Compound
9 | 8.22 |  |  |  |  |  | 6.98 |  |  | O=c1ccc2cnc3ccc(-c4ccc(-n5cccn5)nc4)nc3c2n1-c1cccc(C(F)(F)F)c1 [Compound 20, 2-(6-(1H-pyrazol-1-yl)pyridin-3-yl)-10-(3-(trifluoromethyl)phenyl)pyrido[3,2-c][1,5]naphthyridin-9(10H)-one]
10 |  | 259 ng·h/mL |  | 22.6% | 104 ng·h/mL |  |  | 7.83 | 7.91 | Nc1ccc(-c2ccc3ncc4ccc(=O)n(-c5cccc(C(F)(F)F)c5)c4c3c2)cn1 [Torin-2, 9-(6-Aminopyridin-3-yl)-1-(3-(trifluoromethyl)phenyl)benzo[h][1,6]naphthyridin-2(1H)-one, reference compound]
11 | 9.05 |  |  |  |  |  | 8.60 | 8.17 | 8.08 | O=c1ccc2cnc3ccc(-c4cnc5[nH]ccc5c4)nc3c2n1-c1cccc(C(F)(F)F)c1 [Compound 39, 2-(1H-pyrrolo[2,3-b]pyridin-5-yl)-10-(3-(trifluoromethyl)phenyl)pyrido[3,2-c][1,5]naphthyridin-9(10H)-one]
12 | 8.64 |  |  |  |  |  | 6.80 |  |  | CN1CCN(c2ccc(-c3ccc4ncc5ccc(=O)n(-c6cccc(C(F)(F)F)c6)c5c4n3)cn2)CC1 [Compound 19, 2-(6-(4-methylpiperazin-1-yl)pyridin-3-yl)-10-(3-(trifluoromethyl)phenyl)pyrido[3,2-c][1,5]naphthyridin-9(10H)-one]
13 | 8.30 |  |  |  |  |  | 7.77 |  |  | CSc1ccc(-c2ccc3ncc4ccc(=O)n(-c5cccc(C(F)(F)F)c5)c4c3n2)cn1 [Compound 38, 2-(6-(methylthio)pyridin-3-yl)-10-(3-(trifluoromethyl)phenyl)pyrido[3,2-c][1,5]naphthyridin-9(10H)-one]

Reference: patent US9475812B2, “Pyridonaphthyridine type dual PI3K and mTOR inhibitor and its preparation and use” (Xuanzhu Pharma Co., Ltd., priority 2011, dated 2016)
